Test results: ChEMBL document CHEMBL1201862, “PubChem BioAssay data set” (2004)
Calls of active or inactive are those of the source.

Assays:
Streptokinase A = molecular target: T1, Streptokinase A (Streptococcus pyogenes serotype M1, UniProt P10520); assay: S. pyogenes streptokinase expression inhibitors, potency, dose response, plasminogen activation absorbance, OD405 (AID 1914); assay type: functional, Streptococcus pyogenes M1 GAS;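 further: secreted streptokinase activity via plasminogen activation per viability signal from cell pellet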
T1 sequence (P10520 whole entry): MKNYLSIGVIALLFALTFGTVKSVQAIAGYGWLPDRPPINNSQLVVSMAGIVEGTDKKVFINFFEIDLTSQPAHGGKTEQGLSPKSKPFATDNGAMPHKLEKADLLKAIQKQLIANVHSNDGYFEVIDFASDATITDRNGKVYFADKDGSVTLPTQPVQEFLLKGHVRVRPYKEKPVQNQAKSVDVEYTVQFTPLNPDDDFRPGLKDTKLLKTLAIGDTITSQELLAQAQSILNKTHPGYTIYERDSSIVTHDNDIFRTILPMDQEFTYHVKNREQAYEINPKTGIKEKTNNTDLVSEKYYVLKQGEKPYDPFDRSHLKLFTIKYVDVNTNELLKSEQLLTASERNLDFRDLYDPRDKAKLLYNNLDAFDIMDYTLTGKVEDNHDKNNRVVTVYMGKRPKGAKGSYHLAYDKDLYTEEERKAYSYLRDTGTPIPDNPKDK

Major prion protein = Major prion protein (Homo sapiens, UniProt P04156); assay type: functional, cell-based
[1] = tested on: Streptococcus sp. 'group A'; assay: growth inhibition of control SK(-) GAS strain, dose response, counter-screen for streptokinase expression inhibitor project, luminescence, kanamycin, BacTiterGlo, confirmation (AID 1900); assay type: functional, organism-based
[2] = HEp-2 cell cytotoxicity, dose response, cytotoxicity control for RSV inhibitor project, HTS (AID 2410); assay type: functional; conditions: human respiratory syncytial virus
Streptococcus = assay: Group A Streptococcus viability loss, dose response, counter-screen for streptokinase expression inhibitor project, luminescence, BacTiterGlo (AID 1915); assay type: functional, organism-based;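 further: potency for reduction of bacterial viability or growth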
[3] = molecular target: T2, Calpain-2 catalytic subunit (Sus scrofa, UniProt P43367); assay: pig calpain II inhibitor potency, dose response, biochemical, fluorogenic peptide substrate (AID 1420); assay type: functional
T2 sequence (P43367 whole entry): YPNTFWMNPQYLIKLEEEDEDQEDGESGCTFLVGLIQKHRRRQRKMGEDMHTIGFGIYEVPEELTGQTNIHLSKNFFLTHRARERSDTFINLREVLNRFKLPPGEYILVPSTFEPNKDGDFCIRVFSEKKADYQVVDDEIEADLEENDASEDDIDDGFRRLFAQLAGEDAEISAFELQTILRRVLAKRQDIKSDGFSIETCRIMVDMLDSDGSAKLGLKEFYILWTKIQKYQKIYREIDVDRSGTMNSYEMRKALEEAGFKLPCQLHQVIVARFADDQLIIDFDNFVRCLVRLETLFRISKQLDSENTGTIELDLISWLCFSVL

[4] = molecular target: Protein disulfide-isomerase (Homo sapiens, UniProt P07237); assay: PDI inhibitors, insulin turbidity readout, confirmation, biochemical, dry powder samples, set 2 (AID 652146)
[5] = PAX2 cell-based inhibition, dose response, selectivity assay for PAX8 inhibitor project, plate reader, dry powder samples (AID 743048); assay type: functional;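 further: HEK293 cells carrying a WT1 promoter luciferase reporter driven by expressed Pax2; potency is for inhibition of Pax2 driven reporter signal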
[6] = PAX5 activity inhibitors, dose response, selectivity assay for PAX8 inhibitor project, cell-based, plate reader, dry powder samples (AID 743047); assay type: functional;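 further: HEK293 cells carrying a Pax5 driven CD19 promoter luciferase reporter; potency of inhibitors that lower reporter luminescence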
[7] = cytotoxicity in OV-90 ovarian cancer cells, dose response, PAX8 inhibitor project, cell-based, plate reader, dry powder, SA8 (AID 743149); assay type: functional
[8] = molecular target: SWI/SNF-related matrix-associated actin-dependent regulator of chromatin subfamily A member 2 (Homo sapiens, UniProt P51531); assay: Luminescence-based cell-based high throughput dose response assay to identify activators of the function of SWI/SNF related, matrix associated, actin dependent regulator of chromatin, subfamily a, member 2 (SMARCA2, BRM).; assay type: functional
[9] = Counterscreen for activators of the function of SWI/SNF related, matrix associated, actin dependent regulator of chromatin, subfamily a, member 2 (SMARCA2, BRM): Luminescence-based cell-based high throughput dose response assay to identify non-selective compounds using the VP16 reporter assay.; assay type: functional
ORF 73 = ORF 73 (Human herpesvirus 8, UniProt O40947); assay: inhibitors of C-LANA binding to LBS DNA, dose response, biochemical, fluorescence polarization, cherry-picked samples (AID 504725); set-up: species or system Human gammaherpesvirus 8;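 further: fluorescence polarization of a labeled DNA duplex reporting LANA DNA binding; potency is for inhibitors that block LANA binding to the DNA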
[10] = molecular target: Tyrosyl-DNA phosphodiesterase 2 (Homo sapiens, UniProt O95551); assay: human TDP2 enzyme inhibitors, dose response, biochemical, epi absorbance, IC50 (AID 743297)
[11] = molecular target: T3, Histone-lysine N-methyltransferase NSD2 (Homo sapiens, UniProt O96028); assay type: biochemical
T3 sequence (O96028 whole entry): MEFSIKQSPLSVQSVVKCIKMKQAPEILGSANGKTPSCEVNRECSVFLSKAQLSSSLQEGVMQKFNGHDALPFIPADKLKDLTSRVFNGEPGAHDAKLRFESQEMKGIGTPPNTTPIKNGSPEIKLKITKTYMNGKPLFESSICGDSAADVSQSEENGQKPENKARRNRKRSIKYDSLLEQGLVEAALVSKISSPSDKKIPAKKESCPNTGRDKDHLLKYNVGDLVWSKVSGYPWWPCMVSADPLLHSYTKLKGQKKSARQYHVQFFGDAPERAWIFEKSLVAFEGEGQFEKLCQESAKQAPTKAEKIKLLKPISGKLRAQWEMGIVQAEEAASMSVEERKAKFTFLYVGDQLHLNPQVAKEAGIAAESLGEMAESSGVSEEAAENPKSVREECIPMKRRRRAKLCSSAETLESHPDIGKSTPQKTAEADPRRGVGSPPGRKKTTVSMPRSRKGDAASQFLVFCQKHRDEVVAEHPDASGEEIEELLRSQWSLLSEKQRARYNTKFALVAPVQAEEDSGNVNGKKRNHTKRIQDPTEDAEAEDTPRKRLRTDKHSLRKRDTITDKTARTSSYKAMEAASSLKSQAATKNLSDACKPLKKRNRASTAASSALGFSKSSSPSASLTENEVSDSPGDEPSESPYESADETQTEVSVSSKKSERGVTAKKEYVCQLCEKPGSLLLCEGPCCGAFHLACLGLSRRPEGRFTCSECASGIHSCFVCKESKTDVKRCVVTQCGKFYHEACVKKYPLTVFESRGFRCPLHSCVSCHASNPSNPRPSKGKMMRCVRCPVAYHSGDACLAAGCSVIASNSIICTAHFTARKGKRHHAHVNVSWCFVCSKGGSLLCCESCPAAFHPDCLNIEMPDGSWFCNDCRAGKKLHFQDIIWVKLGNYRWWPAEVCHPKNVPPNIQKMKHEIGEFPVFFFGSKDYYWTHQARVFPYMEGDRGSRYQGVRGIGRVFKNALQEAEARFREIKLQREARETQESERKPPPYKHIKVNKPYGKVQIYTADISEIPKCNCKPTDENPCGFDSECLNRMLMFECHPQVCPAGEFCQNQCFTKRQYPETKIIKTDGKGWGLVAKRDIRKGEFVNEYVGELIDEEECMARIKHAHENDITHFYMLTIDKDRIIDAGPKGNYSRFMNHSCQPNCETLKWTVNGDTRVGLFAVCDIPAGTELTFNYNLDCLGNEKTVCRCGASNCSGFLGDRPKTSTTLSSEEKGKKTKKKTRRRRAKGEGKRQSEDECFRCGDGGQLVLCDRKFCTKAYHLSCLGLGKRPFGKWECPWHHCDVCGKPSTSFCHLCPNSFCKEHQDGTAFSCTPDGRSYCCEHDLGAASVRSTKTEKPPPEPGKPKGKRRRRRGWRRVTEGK

HeLa = assay: HeLa cell cytotoxicity, dose response, cytotoxicity control, 24 h, cherry-picked samples (AID 504726); assay type: functional, cell-based; conditions: Homo sapiens;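 further: potency for cytotoxicity as loss of luminescence signal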
[12] = HeLa cell cytotoxicity, dose response, cytotoxicity control for MgcRacGAP inhibitor project (AID 624300); assay type: functional
[13] = molecular target: T4, Rac GTPase-activating protein 1 (Homo sapiens, UniProt Q9H0H5); assay: MgcRacGAP GTPase-activating activity inhibitors, confirmation, biochemical, ADP Hunter fluorescence, primary and confirmatory (AID 624330); assay type: functional
T4 sequence (Q9H0H5 whole entry): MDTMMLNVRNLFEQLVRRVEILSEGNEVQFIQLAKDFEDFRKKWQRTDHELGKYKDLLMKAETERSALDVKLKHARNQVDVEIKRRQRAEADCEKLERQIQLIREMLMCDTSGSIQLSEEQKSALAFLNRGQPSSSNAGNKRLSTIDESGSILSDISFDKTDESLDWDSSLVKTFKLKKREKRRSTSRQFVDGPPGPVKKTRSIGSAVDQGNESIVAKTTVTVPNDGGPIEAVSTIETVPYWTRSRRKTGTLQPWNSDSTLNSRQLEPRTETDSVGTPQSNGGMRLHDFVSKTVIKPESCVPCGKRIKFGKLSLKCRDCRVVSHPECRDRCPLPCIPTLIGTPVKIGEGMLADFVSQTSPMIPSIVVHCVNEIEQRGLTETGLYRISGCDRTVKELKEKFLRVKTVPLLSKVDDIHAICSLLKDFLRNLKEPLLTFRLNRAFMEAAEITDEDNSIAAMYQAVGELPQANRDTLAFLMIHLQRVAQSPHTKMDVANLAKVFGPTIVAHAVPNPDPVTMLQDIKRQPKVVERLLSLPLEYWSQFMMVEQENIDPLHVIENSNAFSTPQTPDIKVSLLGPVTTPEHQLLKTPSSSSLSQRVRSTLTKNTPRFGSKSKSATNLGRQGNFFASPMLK

[14] = molecular target: Dual specificity tyrosine-phosphorylation-regulated kinase 1A (Rattus norvegicus, UniProt Q63470); assay type: biochemical, Homo sapiens

**Q.** Which results are given for `Cc1nc(-c2ccc(S(=O)(=O)Nc3ccc(Br)cc3Cl)s2)cs1`?
**A.** EC50 (Streptokinase A): 3.98 µM (active); IC50 (Major prion protein): 12.5 µM (inactive); EC50 [1]: 3.04 µM (active); IC50 (cells): > 138 µM (inactive); CC50 [2]: 16.6 µM (active); EC50 (Streptococcus): 11.9 µM (active); IC50 [3]: 12.2 µM (active)

**Q.** Which AC50 [4] does the source give for `C=CCOc1ccc(CN2CCC(CCOc3ccccc3)(C(=O)O)CC2)cc1Cl` here?
**A.** 20 µM (active)

**Q.** What does the source list for `COc1cccc(C#Cc2ccc([C@@H]3[C@@H](C#N)N(C(=O)C4CCCC4)[C@@H]3CO)cc2)c1`?
**A.** AC50 [5]: 31.6 µM (active); AC50 [6]: 30.7 µM (active); AC50 [7]: > 70 µM (inactive)

**Q.** Which EC50 [8] does the source give for `CCN(CC)CCCNc1ccc2ncn3c4ccc(O)cc4c(=O)c1c23` here?
**A.** 20.5 µM (inactive)

**Q.** And the EC50 [9]?
**A.** > 91.2 µM (inactive)

**Q.** And the AC50 (ORF 73)?
**A.** 2.05 µM (active)

**Q.** And the IC50 [10]?
**A.** > 128 µM (inactive)

**Q.** And the AC50 [11]?
**A.** 12.7 µM (active)

**Q.** What about the AC50 (HeLa) of the same molecule?
**A.** > 350 µM (inactive)

**Q.** And the CC50 [12]?
**A.** 89.3 µM (active)

**Q.** What about the IC50 [13] of the same molecule?
**A.** 56.4 µM (active)

**Q.** What about the AC50 [14] of the same molecule?
**A.** 2.77 µM (active)
